From patent US20240374750A1, “LINKER COMPOUND AND COMPLEX COMPOUND CONTAINING SAME” (TOHOKU UNIVERSITY, priority 2021, published 2024)

Assays:
Format in all cases: physicochemical
[1] = Cleavage reaction under cancer cell model condition, NMR (Test Examples 6 and 9)
Method: At a concentration of ArS—SrA (H) of the formula (7) (225 μM) assuming a realistic intracellular drug concentration, a GSH concentration of a cancer cell was approximated to 20 mM, and the same measurement was performed.
(§1) To prevent a peak of the aromatic region having a low concentration from being overlapped by the peak of CHCl3 contained in CDCl3, the measurement was performed with D2O in the outside the double tube. The overall compound concentration was low and the peak ratio of water was high, and thus, the number of times of integration was increased for measurement to distinguish between the peaks of the compounds and the peak of the baseline.
ArSSrA (F) and ArSSrA (NO2) were subjected to the same test as in Test Example 6 to examine their cleavage reactions in the normal cell model and the cancer cell model. The results of ArSSrA (F) and ArSSrA (NO2) are shown in Table 6 and Table 7, respectively.

[2] = Reductive cleavage reaction of F- and NO2-substituted products, NMR (Test Examples 7 and 8); conditions: same conditions as in Test Example 5
[3] = Reductive cleavage reaction with GSH in mixed system, NMR (Test Example 4); conditions: ArSSrA (H)/GSH=4.4 mM/4.5 mM, 50 mM phosphate buffer
Method: As NMR spectrum measurement conditions, GSH of the formula (13) was added to ArSSrA (H) of the formula (7) in a 50 mM phosphate buffer to adjust a solution of ArSSrA (H)/GSH=4.4 mM/4.5 mM, and the measurement by NMR was carried out. A double tube (SHIGEMI Co., Ltd., Model SP-405) was used and a TMS-containing CDCl3 solution (LOCK solvent) was placed in the outside to adjust an NMR tube.
In the NMR measurement, the water elimination (presaturation method) measurement was performed with reference to Casi, G. et al., J. Controlled Release. 2012, 161, 121, 422 to 428, and the like.
(Initial concentration ArSSrA (H)/GSH=4.4 mM/4.5 mM)

[4] = Cleavage reaction under normal cell model condition, NMR (Test Example 5); conditions: ArS—SrA 225 μM, GSH 450 μM (normal cell model)
Method: ArS—SrA (H) of the formula (7) was administered to a cell model of a GSH concentration assuming a realistic intracellular drug concentration to examine the cleavage reaction of the linker compound.
as §1, with “At an ArS—SrA (H) concentration (225 μM), the GSH concentration of a normal cell was approximated to 450 μM, and the same measurement was performed. To” for “To”, “in” for “in the”

[5] = Reductive cleavage reaction with LiBH4 in THF traced by UV spectrum (Test Example 2); conditions: 45 μM in THF, 11 equivalents LiBH4, absorption at 242 nm
Method: The control of the electron density of the S atom by the substituent was expected from the above NMR results, and thus, a reductive cleavage reaction of the thiophenol-type disulfide linker was actually examined. First, a reaction of a thiophenol derivative model compound (compound of formula (2)) with a reducing agent LiBH4 in an organic solvent THF was carried out as a model reaction (formula (12)) using a UV spectrum which can be easily examined, and a pseudo-first order reaction rate was examined.
As the THF, THF available from Wako Pure Chemical Industries, Ltd., product code 207-17765, super dehydrated, and stabilizer-free was used, and as the cell, a cell of 10 mm×10 mm was used. A reduction reaction of an oxidized form (disulfide) of the compound of the formula (2), which is an unsubstituted model compound, was carried out in the cell. The reaction was carried out using an excess amount (11 equivalents) of LiBH4 relative to the oxidized form of the compound of the formula (2) (45 μM in THF). LiBH4 was adjusted by diluting a commercially available THF 2M solution and used in the reaction.

[6] = ArS—SrA 225 μM, GSH 20 mM (cancer cell model), 100 min.
[7] = ArS—SrA 225 μM, GSH 20 mM (cancer cell model), 100 minutes
[8] = ArS—SrA 225 μM, GSH 20 mM (cancer cell model), 1 day

## O=C(O)c1c(F)cccc1SSc1cccc(F)c1C(=O)O [ArSSrA (F)]
[1]; [6]
  ArSH abundance ratio: 92%
  ArS—SG abundance ratio (1st ArS—SG column): 0%
  ArS—SG abundance ratio (2nd ArS—SG column): 0%
  ArS—SrA abundance ratio (remaining disulfide): 8%
  GSH abundance ratio: 96%
  GS—SG abundance ratio: 3.8%
[1]; [7]
  linker disulfide cleaved (dissociated): about 90%
[1]; [8]
  ArSH abundance ratio: 100%
  ArS—SG abundance ratio (1st ArS—SG column): 0%
  ArS—SG abundance ratio (2nd ArS—SG column): 0%
  ArS—SrA abundance ratio (remaining disulfide): 0%
  GSH abundance ratio: 90%
  GS—SG abundance ratio: 9.5%
  linker disulfide cleaved (dissociated): all
[2]; 100 min.
  ArSH abundance ratio: 38%
  ArS—SG abundance ratio (1st ArS—SG column): 20%
  ArS—SG abundance ratio (2nd ArS—SG column): 39%
  ArS—SrA abundance ratio (remaining disulfide): 42%
  GSH abundance ratio: 42%
  GS—SG abundance ratio: 9%
[2]; 1 day
  ArSH abundance ratio: 36%
  ArS—SG abundance ratio (1st ArS—SG column): 21%
  ArS—SG abundance ratio (2nd ArS—SG column): 41%
  GSH abundance ratio: 8%
  GS—SG abundance ratio: 26%

## O=C(O)c1ccccc1SSc1ccccc1C(=O)O [ArSSrA (H)]
[3]; 25 min.
  ArSH abundance ratio: 13%
  ArS—SG abundance ratio (1st ArS—SG column): 3.8%
  ArS—SG abundance ratio (2nd ArS—SG column): 7.2%
  ArS—SrA abundance ratio (remaining disulfide): 83%
  GSH abundance ratio: 74%
  GS—SG abundance ratio: 19%
[3]; 100 min.
  ArSH abundance ratio: 26%
  ArS—SG abundance ratio (1st ArS—SG column): 11%
  ArS—SG abundance ratio (2nd ArS—SG column): 20%
  ArS—SrA abundance ratio (remaining disulfide): 62%
  GSH abundance ratio: 48%
  GS—SG abundance ratio: 32%
[3]; 1 day
  ArSH abundance ratio: 12%
  ArS—SG abundance ratio (1st ArS—SG column): 31%
  ArS—SG abundance ratio (2nd ArS—SG column): 57%
  ArS—SrA abundance ratio (remaining disulfide): 57%
  GSH abundance ratio: 11%
  GS—SG abundance ratio: 32%
[4]; 100 min.
  ArSH abundance ratio: 8.2%
  ArS—SG abundance ratio (1st ArS—SG column): 2%
  ArS—SG abundance ratio (2nd ArS—SG column): 1.8%
  ArS—SrA abundance ratio (remaining disulfide): 89%
  GSH abundance ratio: 88%
  GS—SG abundance ratio: 10%
[4]; 1 day
  ArSH abundance ratio: 3.3%
  ArS—SG abundance ratio (1st ArS—SG column): 24%
  ArS—SG abundance ratio (2nd ArS—SG column): 21%
  ArS—SrA abundance ratio (remaining disulfide): 84%
  GSH abundance ratio (GSH remained): 18%
  GSH consumed: 82%
  GS—SG abundance ratio: 62%
  linker disulfide cleaved: about 16%
[1]; [6]
  ArSH abundance ratio: 82%
  ArS—SG abundance ratio (1st ArS—SG column): 0%
  ArS—SG abundance ratio (2nd ArS—SG column): 0%
  ArS—SrA abundance ratio (remaining disulfide): 19%
  GSH abundance ratio: 97%
  GS—SG abundance ratio: 3.4%
[1]; [7]
  linker disulfide cleaved (dissociated): 82%
[1]; [8]
  ArSH abundance ratio: 100%
  ArS—SG abundance ratio (1st ArS—SG column): 0%
  ArS—SG abundance ratio (2nd ArS—SG column): 0%
  ArS—SrA abundance ratio (remaining disulfide): 0%
  GSH abundance ratio: 91%
  GS—SG abundance ratio: 8.8%
  linker disulfide cleaved (dissociated): 100%

## O=C(O)c1cc(SSc2ccc([N+](=O)[O-])c(C(=O)O)c2)ccc1[N+](=O)[O-] [ArSSrA (NO2)]
[1]; 100 min, 225 μM
  ArS—SrA abundance ratio (remaining disulfide): 5%
[1]; 24 h, 225 μM
  ArS—SrA abundance ratio (remaining disulfide): 0%
[1]; [6]
  ArSH abundance ratio: 95%
  ArS—SG abundance ratio (1st ArS—SG column): 0%
  ArS—SG abundance ratio (2nd ArS—SG column): 0%
  GSH abundance ratio: 95%
  GS—SG abundance ratio: 4%
[1]; [7]
  linker disulfide cleaved (dissociated): about 90%
[1]; [8]
  ArSH abundance ratio: 100%
  ArS—SG abundance ratio (1st ArS—SG column): 0%
  ArS—SG abundance ratio (2nd ArS—SG column): 0%
  GSH abundance ratio: 90%
  GS—SG abundance ratio: 10%
  linker disulfide cleaved (dissociated): all
[2]; 100 min.
  ArSH abundance ratio: 51%
  ArS—SG abundance ratio (1st ArS—SG column): 20%
  ArS—SG abundance ratio (2nd ArS—SG column): 39%
  ArS—SrA abundance ratio (remaining disulfide): 29%
  GSH abundance ratio: 30%
  GS—SG abundance ratio: 9%
[2]; 1 day
  ArSH abundance ratio: 48%
  ArS—SG abundance ratio (1st ArS—SG column): 22%
  ArS—SG abundance ratio (2nd ArS—SG column): 45%
  GSH abundance ratio: 4%
  GS—SG abundance ratio: 26%

## c1ccc(SSc2ccccc2)cc1 [formula (2)]
[5]
  pseudo first order reaction rate constant k: 1.97×10^−2
